Experimental data taken from PubChem BioAssay (NCI).
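Interpolation was linear, between the two tested concentrations surrounding the appropriate level; five concentrations were tested over 48 hours in 96-well plates. At the GI50, growth is halved. Definition used: TGI = concentration required for complete inhibition of growth.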

Tests used:
Experiment in all cases: NCI anticancer screen, dose series, 48 h
[1] = tested on: DU-145 prostate
[2] = tested on: OVCAR-3 ovarian
[3] = tested on: OVCAR-8 ovarian
[4] = tested on: SK-OV-3 ovarian
[5] = tested on: UACC-257 melanoma
[6] = tested on: HCT-116 colon
[7] = tested on: MALME-3M melanoma
[8] = tested on: MDA-N
[9] = tested on: SK-MEL-5 melanoma
[10] = tested on: U251 CNS

COc1cc(/C=C/C(=O)c2c(C)nc3ccccc3c2C)ccc1OCCCOc1cc2c(cc1OC)C(=O)N1CCC[C@H]1C=N2
GI50 [1]: 0.0279 µM
TGI [1]: 0.0802 µM
GI50 [2]: 0.0247 µM
TGI [2]: 0.0556 µM
GI50 [3]: 0.0329 µM
TGI [3]: > 38.1 µM
GI50 [4]: 0.064 µM
TGI [4]: 1.13 µM
GI50 [5]: 0.0269 µM
TGI [5]: 0.0838 µM

CC1C2CC(C(S(=O)(=O)N3CCOCC3)/C2=N\O)C1(C)C (configuration not stated)
TGI [1]: > 100 µM
TGI [6]: > 100 µM
TGI [7]: > 100 µM
TGI [8]: > 100 µM
TGI [2]: > 100 µM
TGI [3]: > 100 µM
TGI [9]: > 100 µM
TGI [4]: > 100 µM
TGI [5]: > 100 µM

COC(=O)/C=C/c1ccc2c(c1)CC1(C2)Cc2cc3c(cc2C1=O)CCC3 (configuration not stated)
TGI [1]: > 100 µM
TGI [6]: > 100 µM
TGI [7]: > 100 µM
TGI [8]: > 100 µM
TGI [2]: 43.7 µM
TGI [3]: 68.8 µM
TGI [9]: > 100 µM
TGI [10]: > 100 µM
TGI [5]: > 100 µM

CCN1CCN(c2nc3ccc([N+](=O)[O-])cc3nc2C(=O)c2ccccc2)CC1
TGI [1]: 33.2 µM
TGI [6]: 31.2 µM
TGI [7]: 28.2 µM
TGI [8]: 33.9 µM
TGI [2]: 30.6 µM
TGI [3]: 30.5 µM
TGI [4]: 41.7 µM
TGI [10]: 31.9 µM
TGI [5]: 36.7 µM

CCCCCCCCCCCCCC[n+]1ccc2c(C)c3c(c(C)c2c1)c1cc(O)ccc1n3CC
GI50 [1]: 0.381 µM
TGI [1]: 1.63 µM
GI50 [7]: 0.233 µM
TGI [7]: 0.706 µM
GI50 [9]: 0.258 µM
TGI [9]: 0.724 µM
GI50 [4]: 0.28 µM
TGI [4]: 0.849 µM

O=C(/C=C/c1ccc(/C=C/C(=O)c2ccc(O)cc2)cc1)c1ccc(O)cc1
TGI [1]: > 100 µM
TGI [6]: > 100 µM
TGI [8]: > 100 µM
TGI [2]: > 100 µM
TGI [3]: > 100 µM
TGI [9]: > 100 µM
TGI [10]: > 100 µM
TGI [5]: > 100 µM

CN1CCC(CN2c3ccccc3Sc3ccccc32)CC1
TGI [6]: 25.2 µM
TGI [2]: 29 µM
TGI [3]: 31.2 µM
TGI [9]: 18.5 µM
TGI [4]: 30.2 µM
TGI [10]: 29.2 µM
TGI [5]: 27.8 µM

CSCCCNC(=O)c1csc(-c2csc(C(CNC(=O)OC(C)(C)C)CNC(=O)OC(C)(C)C)n2)n1
TGI [1]: > 100 µM
TGI [6]: > 100 µM
TGI [8]: > 100 µM
TGI [2]: > 100 µM
TGI [3]: > 100 µM
TGI [9]: > 100 µM
TGI [4]: > 100 µM
TGI [10]: 71.5 µM
TGI [5]: > 100 µM

Cc1ccc(O)c(-c2cc(-c3cccc(Cl)c3)c(C#N)c(N)n2)c1
TGI [1]: > 100 µM
TGI [6]: 30.1 µM
TGI [7]: 58.1 µM
TGI [8]: 37.8 µM
TGI [2]: > 100 µM
TGI [3]: > 100 µM
TGI [9]: 29.2 µM
TGI [4]: 66.2 µM
TGI [10]: 30 µM

COc1cc(C2C(C(=O)O)=C(COC(C)=O)Oc3cc4c(cc32)OCO4)cc(OC)c1OC (configuration not stated)
TGI [6]: > 100 µM
TGI [7]: > 100 µM
TGI [2]: > 100 µM
TGI [3]: > 100 µM
TGI [9]: > 100 µM
TGI [4]: > 100 µM
TGI [10]: > 100 µM
TGI [5]: > 100 µM

COC(=O)c1ccc(C)cc1/C=C1\Cc2ccc(C)cc2C1=O
TGI [1]: 39 µM
TGI [6]: 23.2 µM
TGI [7]: 30.1 µM
TGI [2]: 31.2 µM
TGI [3]: 59 µM
TGI [9]: 29.7 µM
TGI [10]: 32.3 µM
TGI [5]: 51.5 µM

N#Cc1c(N)sc2c1-c1ccccc1OC2
TGI [1]: > 100 µM
TGI [6]: 82.8 µM
TGI [7]: > 100 µM
TGI [8]: 67.1 µM
TGI [2]: 61.7 µM
TGI [9]: > 100 µM
TGI [4]: > 100 µM
TGI [10]: > 100 µM
TGI [5]: > 100 µM

CSc1c(C#N)c(N)nc2c(N=Nc3ccc(Cl)cc3)c(N)nn12
TGI [1]: 5.7 µM
TGI [7]: 16.4 µM
TGI [8]: 23.4 µM
TGI [2]: 3.38 µM
TGI [3]: 4.15 µM
TGI [9]: 35 µM
TGI [4]: 67.1 µM
TGI [10]: 11 µM
TGI [5]: 10.2 µM

N=c1c2c(-c3ccccc3)c[nH]c2ncn1N
TGI [6]: > 100 µM
TGI [8]: > 100 µM
TGI [2]: > 100 µM
TGI [3]: > 100 µM
TGI [9]: > 100 µM
TGI [4]: > 100 µM
TGI [10]: > 100 µM
TGI [5]: > 100 µM

Nc1nc(N)c2ncn(Cc3ccccc3CCl)c2n1
TGI [1]: > 100 µM
TGI [6]: > 100 µM
TGI [7]: > 100 µM
TGI [2]: > 100 µM
TGI [3]: > 100 µM
TGI [9]: > 100 µM
TGI [4]: > 100 µM
TGI [10]: > 100 µM
TGI [5]: > 100 µM

CN(C)c1ccc(C(Cc2ccc3ccccc3n2)Cc2ccc3ccccc3n2)cc1
GI50 [1]: > 100 µM
TGI [1]: > 100 µM
GI50 [6]: 2.64 µM
TGI [6]: > 100 µM
GI50 [7]: 1.96 µM
TGI [7]: > 100 µM

CN(C)c1nncc2[nH]cnc12
TGI [1]: > 100 µM
TGI [6]: > 100 µM
TGI [2]: > 100 µM
TGI [3]: > 100 µM
TGI [9]: > 100 µM
TGI [10]: > 100 µM
TGI [5]: > 100 µM
